{"source": "patent US9889146B2", "about": "“Benzoxaborole compounds and uses thereof” (priority 2012, dated 2018)", "format_in_all_cases": "cell-based", "key": {"K. pneumoniae ATCC 13883": {"system": "K. pneumoniae ATCC 13883", "test": "Spontaneous frequency of resistance", "settings": "4 X MIC, 24 h", "in_short": "(§1)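 Resistant mutants selected by plating varying inocula on MHBII noble agar with 4× or 10× MIC of GSK2251052, 24 and 48 h at 37 °C; resistance confirmed by regrowth on drug plates. Frequency = resistant colonies ÷ total cells plated, counted from dilutions of overnight culture on LB.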"}, "E. coli ATCC 25922": {"system": "E. coli ATCC 25922", "test": "Spontaneous frequency of resistance", "settings": "10 X MIC, 24 h", "in_short": "as §1"}, "P. aeruginosa ATCC 27853": {"system": "P. aeruginosa ATCC 27853", "test": "Spontaneous frequency of resistance", "settings": "24 h", "in_short": "as §1"}, "[1]": {"system": "Citrobacter freundii (AmpC)", "test": "microbe, parasite or virus in culture", "settings": "Citrobacter freundii"}, "[2]": {"system": "Enterobacter cloacae (WT)", "test": "microbe, parasite or virus in culture"}, "[3]": {"system": "E. coli isolates from subject E. coli 1", "test": "MIC in M9 minimal media of clinical isolates, subject E. coli 1", "settings": "Escherichia coli, read-out: MIC in M9 Minimal Media", "description": "The E. coli and P. mirabilis strains were cultured on Trypticase Soy Agar/5% blood plates (Becton Dickinson BBL), in cation adjusted Mueller-Hinton II Broth, or in M9 minimal salts (Becton Dickinson) broth containing 0.4% glucose and 200 uM MgSO4. L-Norvaline (Sigma-Aldrich) was prepared at a concentration of 6.4 mg/ml in […], in a final volume of approx 0.5 ml, and stored at −20° C. until required.\nMinimum inhibitory concentrations (MICs) were determined using the CLSI (Clinical and Laboratory Standards Institute, formerly NCCLS) recommended broth microdilution methodology [NCCLS, 2003] using defined media.\nThroughout this study E. coli and P. mirabilis strains were cultured on Trypticase Soy Agar/5% blood plates, on M9 salts/1.2% Bacto Agar plates, in Cation Adjusted Mueller-Hinton II Broth (CAMHB), or in M9 Minimal Salt Broth containing 0.4% glucose and 200 μM MgSO4. GSK2251052 and norvaline were prepared at a concentration of 6.4 mg/mL (free base) in 100% DMSO and 100% water respectively, aliquoted in 0.5 mL individual stocks, and stored at −20° C. until required.\nMinimum inhibitory concentrations (MICs) were determined for each organism using the CLSI (Clinical and Laboratory Standards Institute) recommended broth microdilution methodology [CLSI, 2009].\nStrains tested are detailed in Table 15. MICs for norvaline and GSK2251052 could only be determined for E. coli isolates from subject E. coli 1 (Table 16) as M9 Minimal Media could not sustain growth of E. coli isolates from subject E. coli 2 (isolates 2a-2o) or P. mirabilis isolates (isolates 3a-3c) from subject E. coli 3. […] This phenotype is consistent with a mutation in the editing site of LeuRS, which could also be responsible for the concomitant decrease in susceptibility to GSK2251052 observed in isolates from Days 2, 3 and 4 (Table 16)."}, "P. aeruginosa": {"system": "P. aeruginosa", "test": "In vitro activity against P. aeruginosa clinical isolates", "settings": "for % susceptible: P. aeruginosa, 2,008 clinical isolates, GSK2251052 based on potential susceptible breakpoint of ≦4 μg/mL", "description": "GSK2251052 was tested for activity against P. aeruginosa, and its activity was compared to other antibiotics of known activity. The results are shown below in Tables 2a and 2b. Of 2,008 clinical isolates tested (from 2009-2010 subjects, of which 40% were from North America) greater than 90% were susceptible to GSK2251052 based on a potential susceptible breakpoint of ≦4 μg/mL."}, "Proteus mirabilis (WT)": {"system": "Proteus mirabilis (WT)", "test": "microbe, parasite or virus in culture", "settings": "Proteus mirabilis (WT)"}, "Proteus vulgaris (WT)": {"system": "Proteus vulgaris (WT)", "test": "microbe, parasite or virus in culture", "settings": "Proteus vulgaris (WT)"}, "[4]": {"system": "Morganella morganii (AmpC)", "test": "microbe, parasite or virus in culture", "settings": "Morganella morganii"}, "[5]": {"system": "Enterobacter cloacae (AmpC)", "test": "microbe, parasite or virus in culture", "settings": "Enterobacter cloacae"}, "Klebsiella spp. (WT)": {"system": "Klebsiella spp. (WT)", "test": "microbe, parasite or virus in culture", "settings": "Klebsiella spp. (WT)"}, "Providencia spp.(all)": {"system": "Providencia spp.(all)", "test": "microbe, parasite or virus in culture", "settings": "Providencia spp.(all)"}, "[6]": {"system": "E. coli ATCC 25922, K. pneumoniae ATCC 13883, and P. aeruginosa ATCC 27853", "test": "Spontaneous frequency of resistance, three strains summarised", "description": "Spontaneous Resistance Frequency was determined in vitro for GSK2251052 and the resistance mutants in E. coli ATCC 25922, K. pneumoniae ATCC 13883, and P. aeruginosa ATCC 27853 strains were characterized. GSK2251052 was prepared as described in U.S. Pat. No. 7,816,344 (the entire contents of which are hereby incorporated by reference herein). LB broth, Mueller Hinton II broth (adjusted), and Difco noble agar were obtained from Becton Dickinson (Cockeysville, Md., USA). M9 minimal broth containing 1×M9 salt, 0.5 μg/ML thiamine, 1 mM MgSO4, 0.1 mM CaCl2, 2% glucose, was obtained from Teknova (Hollister, Calif., USA). Antibacterial agents ciprofloxacin, ceftazidime, chloramphenicol, gentamycin, kanamycin, polymixin B, tobramycin and trimethoprim, and amino acids were obtained from Sigma Chemicals (St. Louis, Mo., USA). Strains were obtained from ATCC (Manassas, Va., USA).\nSelection of resistance to GSK2251052 was attempted by spreading various amounts of bacteria onto MHBII noble agar plates containing 4×MIC (minimum inhibitory concentration) or 10×MIC of GSK2251052. Colonies were counted after 24 hours and 48 hours incubation at 37° C. […] Frequency of resistance was determined by dividing the number of resistant mutants by the total number of cells plated as determined by plating dilutions of the overnight culture on LB plates."}, "[7]": {"settings": "read-out: susceptibility category of MIC90"}, "[8]": {"settings": "GSK2251052 breakpoint, read-out: susceptibility category of MIC90"}, "[9]": {"settings": "Pseudomonas aeruginosa, P. aeruginosa clinical isolates"}}, "note": "Where “and” joins values, the source holds several entries; their conditions need not be identical. Equal values may be shown once. Read-outs that look alike come from different tables or passages of the source."}
{"smiles": "NC[C@H]1OB(O)c2c(OCCCO)cccc21", "note": "[GSK2251052, (S)-3-aminomethyl-7-(3-hydroxy-propoxy)-3h-benzo[c][1,2]oxaborol-1-ol]", "values": [{"measurement": "Frequency of Resistance", "setting": "K. pneumoniae ATCC 13883", "value": "4 × 10^−8 and 5 × 10^−8 and 8 × 10^−7"}, {"measurement": "Frequency of Resistance", "setting": "E. coli ATCC 25922", "value": "8 × 10^−8 and 6 × 10^−8 and 7 × 10^−8"}, {"measurement": "Frequency of Resistance", "setting": "P. aeruginosa ATCC 27853; 4 X MIC", "value": "1 × 10^−7 and 2 × 10^−7"}, {"measurement": "Frequency of Resistance", "setting": "P. aeruginosa ATCC 27853; 10 X MIC", "value": "5 × 10^−8 and 9.6 × 10^−8"}, {"measurement": "MIC90", "setting": "[1]", "value": 1, "unit": "µg/mL"}, {"measurement": "MIC90", "setting": "[1]; [7]", "value": "< 4", "unit": "µg/mL"}, {"measurement": "MIC90", "setting": "[2]; 202 isolates, read-out: MIC90", "value": 1, "unit": "µg/mL"}, {"measurement": "susceptibility category of MIC90", "setting": "[2]; [8]", "value": "< 4", "unit": "µg/mL"}, {"measurement": "MIC", "setting": "[3]; 24 h, Isolate 1a, Blood, Day 1", "value": 1, "unit": "µg/mL"}, {"measurement": "MIC", "setting": "[3]; 24 h, Isolate 1b, Urine, Day 1", "value": 1, "unit": "µg/mL"}, {"measurement": "MIC", "setting": "[3]; 48 h, Isolate 1c, Blood, Day 2", "value": 32, "unit": "µg/mL"}, {"measurement": "MIC", "setting": "[3]; 96 h, Isolate 1e, Blood, Day 4", "value": 32, "unit": "µg/mL"}, {"measurement": "MIC", "setting": "[3]; Isolate 1d, Blood, Day 3", "value": 32, "unit": "µg/mL"}, {"measurement": "MIC Range", "setting": "P. aeruginosa; P. aeruginosa clinical isolates", "value": "0.06 to 64", "unit": "µg/mL"}, {"measurement": "% susceptible", "setting": "P. aeruginosa", "value": "greater than 90%"}, {"measurement": "% susceptible", "setting": "P. aeruginosa; listed as GSK2250152", "value": 92.8, "unit": "%"}, {"measurement": "MIC50", "setting": "P. aeruginosa; [9]", "value": 2, "unit": "µg/mL"}, {"measurement": "MIC90", "setting": "P. aeruginosa; [9]", "value": 4, "unit": "µg/mL"}, {"measurement": "MIC90", "setting": "Proteus mirabilis (WT); 235 isolates, read-out: MIC90", "value": 1, "unit": "µg/mL"}, {"measurement": "susceptibility category of MIC90", "setting": "Proteus mirabilis (WT); [8]", "value": "< 4", "unit": "µg/mL"}, {"measurement": "MIC90", "setting": "Proteus vulgaris (WT); 41 isolates, read-out: MIC90", "value": 1, "unit": "µg/mL"}, {"measurement": "susceptibility category of MIC90", "setting": "Proteus vulgaris (WT); [8]", "value": "< 4", "unit": "µg/mL"}, {"measurement": "MIC90", "setting": "[4]", "value": 2, "unit": "µg/mL"}, {"measurement": "MIC90", "setting": "[4]; [7]", "value": "< 4", "unit": "µg/mL"}, {"measurement": "MIC90", "setting": "[5]", "value": 0.5, "unit": "µg/mL"}, {"measurement": "MIC90", "setting": "[5]; [7]", "value": "< 4", "unit": "µg/mL"}, {"measurement": "MIC90", "setting": "Klebsiella spp. (WT); 159 isolates, read-out: MIC90", "value": 1, "unit": "µg/mL"}, {"measurement": "MIC90", "setting": "Klebsiella spp. (WT); [8]", "value": "< 4", "unit": "µg/mL"}, {"measurement": "MIC90", "setting": "Providencia spp.(all); 68 isolates, read-out: MIC90", "value": 1, "unit": "µg/mL"}, {"measurement": "susceptibility category of MIC90", "setting": "Providencia spp.(all); [8]", "value": "< 4", "unit": "µg/mL"}, {"measurement": "frequency of resistance, range", "setting": "[6]; measured at 24 h", "value": "10^−7 to 10^−8"}, {"measurement": "frequency of resistance, range", "setting": "[6]; three ATCC strains, 24 h and 48 h time points", "value": "10^−7 to 10^−8"}]}
